Test [1] has as its system A549 cells. The test is described as follows: Inhibition of cancer cell growth, MTT assay, A549. The class given is cell-based. The following applies: Homo sapiens, A549, 72 h exposure. Summed up:
(§1)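 Cells grown in RPMI 1640 with 10% FBS were seeded at about 4000 cells/well, left 24 h, then exposed to compound for 72 h (1% DMSO final). MTT absorbance at 570 nm was compared with viable cells at time of addition to give growth inhibition; IC50 from concentration–inhibition plots, triplicates.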
A general note: Formazan colour is commonly taken as a measure of viable cells.

Test [2] concerns the target KDR (VEGFR2) (Homo sapiens (Human), UniProt P35968). Nature of the test: Z′-LYTE kinase inhibition assay (Invitrogen), KDR. The class given is biochemical. To be noted: Z′-LYTE method; for inhibition at 1 µM: 1 μM compound, read-out: % inhibition at 1 μM against KDR; for IC50: read-out: IC50 against KDR. In outline:
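Z′-LYTE FRET assay: 10 μL reactions with 0.5–11.7 ng KDR and 2 μM Tyr 01 peptide in 50 mM HEPES pH 7.5, 10 mM MgCl2, 1 mM EGTA, 0.01% BRIJ-35, 1 h at room temperature. Development Reagent B (1:256) added for 60 min, fluorescence read; IC50 from concentration–inhibition curves.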

Test [3] relates to A375 cells. Nature of the test: Inhibition of cancer cell growth, MTT assay, A375. In kind it is cell-based. To be noted: Homo sapiens, A-375, 72 h exposure. In outline:
as §1

In test [4] the target is BRAF V600E (Homo sapiens (Human), UniProt P15056, V600E). The test is described as follows: Z′-LYTE kinase inhibition assay (Invitrogen), BRAF V600E. The class given is biochemical. The following applies: Z′-LYTE method; for inhibition at 1 µM: 1 μM compound, read-out: % inhibition at 1 μM against BRAF V600E; for IC50: read-out: IC50 against BRAF V600E. Summed up:
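FRET-based Z′-LYTE peptide phosphorylation format in 50 mM HEPES pH 7.5, 0.01% BRIJ-35, 10 mM MgCl2, 1 mM EGTA with ATP. Kinase reaction 60 min at room temperature, then protease development step 60 min at room temperature before fluorescence read. IC50 from compound concentration versus percent inhibition.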

Test [5] addresses BRAF (Homo sapiens (Human), UniProt P15056). Nature of the test: Z′-LYTE kinase inhibition assay (Invitrogen), BRAF. In kind it is biochemical. To be noted: 1 μM compound, Z′-LYTE method; read-out: % inhibition at 1 μM against BRAF. As for the experimental part:
Inhibitory activities Inhibitory activities of compounds against BRAF, and BRAF V600E were measured by Invitrogen using Z′-LYTE® Method as briefly described in the following. 4× Test compounds are dissolved in 1% DMSO. […] ATP solutions are diluted to a 4×ATP working concentration in Kinase Buffer (50 mM HEPES pH 7.5, 0.01% BRIJ-35, 10 mM MgCl2, 1 mM EGTA). Reaction started by 30-second shaking of mixture consisting of 2.5 μL 4× test compound, […] and 2.5 μL 4×ATP Solution on Bar-coded Corning, low volume NBS, black 384-well plate (Corning Cat. #3676). Then the mixture was incubated for 60-minute at room temperature for the kinase reaction, followed by addition of 5 μL of a 1:1024 dilution of development reagent A and 30-second plate shake. The mixture was then incubated for another 60-minute at room temperature for development reaction. Fluorescence was read by plate reader. IC50 was calculated by plotting the concentration of compound vs the percentage of inhibition in treated wells using GraphPad Prism 5.

Drawing on patent publication US10759766B2, “Certain chemical entities, compositions, and methods” (NeuPharma, Inc., priority 2011, dated 2020), this text covers IC50 and inhibition for 18 compounds.

Chain of BRAF V600E (P15056 whole entry V600E): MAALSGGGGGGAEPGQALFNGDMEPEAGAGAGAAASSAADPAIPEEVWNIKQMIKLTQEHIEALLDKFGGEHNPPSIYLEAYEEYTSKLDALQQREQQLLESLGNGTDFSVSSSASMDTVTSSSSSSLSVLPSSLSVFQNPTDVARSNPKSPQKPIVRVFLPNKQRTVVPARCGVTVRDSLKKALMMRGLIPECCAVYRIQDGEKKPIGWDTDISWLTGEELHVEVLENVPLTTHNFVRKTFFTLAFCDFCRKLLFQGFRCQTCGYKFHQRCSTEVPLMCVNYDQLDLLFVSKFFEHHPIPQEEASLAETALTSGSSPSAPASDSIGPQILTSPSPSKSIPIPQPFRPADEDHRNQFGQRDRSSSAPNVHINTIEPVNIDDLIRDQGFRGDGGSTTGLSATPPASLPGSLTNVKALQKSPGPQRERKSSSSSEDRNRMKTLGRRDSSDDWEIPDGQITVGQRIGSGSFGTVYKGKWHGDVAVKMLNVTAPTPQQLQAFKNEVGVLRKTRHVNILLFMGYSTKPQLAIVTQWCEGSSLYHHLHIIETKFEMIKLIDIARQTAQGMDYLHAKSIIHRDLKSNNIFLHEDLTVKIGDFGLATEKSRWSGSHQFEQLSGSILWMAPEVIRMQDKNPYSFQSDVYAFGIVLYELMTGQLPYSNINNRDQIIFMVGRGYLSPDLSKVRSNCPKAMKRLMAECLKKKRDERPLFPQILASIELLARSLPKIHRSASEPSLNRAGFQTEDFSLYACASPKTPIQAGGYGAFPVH
Chain of KDR (VEGFR2) (P35968 20-1356): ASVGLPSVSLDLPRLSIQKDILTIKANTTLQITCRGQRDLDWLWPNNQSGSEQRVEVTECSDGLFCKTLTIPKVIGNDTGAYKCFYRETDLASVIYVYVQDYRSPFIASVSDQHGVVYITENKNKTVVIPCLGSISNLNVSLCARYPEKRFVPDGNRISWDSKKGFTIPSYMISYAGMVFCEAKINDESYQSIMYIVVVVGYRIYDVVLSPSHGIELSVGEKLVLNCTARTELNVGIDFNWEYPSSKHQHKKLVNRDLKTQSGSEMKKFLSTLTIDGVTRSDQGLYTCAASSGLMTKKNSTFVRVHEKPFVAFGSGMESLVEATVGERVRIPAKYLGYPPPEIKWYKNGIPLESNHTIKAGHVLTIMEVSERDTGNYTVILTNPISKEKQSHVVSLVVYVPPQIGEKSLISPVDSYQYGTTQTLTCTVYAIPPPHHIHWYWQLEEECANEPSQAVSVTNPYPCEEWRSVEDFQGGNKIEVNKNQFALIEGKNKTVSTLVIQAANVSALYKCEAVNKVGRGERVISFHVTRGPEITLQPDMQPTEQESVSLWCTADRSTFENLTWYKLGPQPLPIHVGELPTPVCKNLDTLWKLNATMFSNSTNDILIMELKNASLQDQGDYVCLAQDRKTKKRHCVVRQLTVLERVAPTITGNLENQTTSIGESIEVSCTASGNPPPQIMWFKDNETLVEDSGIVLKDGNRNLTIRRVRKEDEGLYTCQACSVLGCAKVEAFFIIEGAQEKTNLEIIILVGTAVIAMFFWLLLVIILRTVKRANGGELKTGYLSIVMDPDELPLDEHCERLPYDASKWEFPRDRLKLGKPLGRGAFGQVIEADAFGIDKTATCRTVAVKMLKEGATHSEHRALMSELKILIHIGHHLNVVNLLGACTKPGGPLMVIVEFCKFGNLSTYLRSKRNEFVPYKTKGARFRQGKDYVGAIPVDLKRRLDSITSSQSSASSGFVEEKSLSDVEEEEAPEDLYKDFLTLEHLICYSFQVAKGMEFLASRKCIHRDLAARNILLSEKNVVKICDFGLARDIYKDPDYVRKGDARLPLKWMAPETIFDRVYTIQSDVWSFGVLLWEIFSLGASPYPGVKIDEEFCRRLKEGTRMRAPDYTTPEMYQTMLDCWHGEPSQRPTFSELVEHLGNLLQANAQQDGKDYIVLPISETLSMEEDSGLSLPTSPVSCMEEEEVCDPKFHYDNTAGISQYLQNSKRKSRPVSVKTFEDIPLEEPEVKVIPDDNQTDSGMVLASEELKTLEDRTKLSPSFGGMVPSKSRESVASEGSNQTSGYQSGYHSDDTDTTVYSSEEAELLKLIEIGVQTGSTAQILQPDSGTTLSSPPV
Chain of BRAF (P15056 whole entry): as the sequence (P15056 whole entry V600E) above, with E600V counted along it

By IC50 is commonly meant the concentration that inhibits the measured activity by half. For orientation: inhibition means the drop in the measured response relative to a control, in per cent. Turning to `O=C(c1cccc(NC(=O)c2cc(C(F)(F)F)ccc2Cl)c1)c1ccc2nccnc2c1` [Compound C106, 2-chloro-N-(3-(quinoxaline-6-carbonyl)phenyl)-5-(trifluoromethyl)benzamide], the half-maximal inhibitory concentration (IC50) was more than 5 µM in test [1] and less than 1 µM in test [3]. Besides, the results for the inhibition at 1 µM in test [2], in test [4] and in test [5] were less than 70%, 70 to 89% and less than 70%, respectively.
As to `O=C(Nc1cccc(C(=O)c2ccc3nccnc3c2)c1)Nc1cccc(C(F)(F)F)c1` [Compound C009, 1-(3-(quinoxaline-6-carbonyl)phenyl)-3-(3-(trifluoromethyl)phenyl)urea], the IC50 in test [1] was 2 to 5 µM; in test [2] it was less than 0.1 µM; in test [3], more than 5 µM; in test [4] it was less than 0.1 µM. The inhibition at 1 µM in test [2] is more than 89%; in test [4], 70 to 89%; in test [5], 70 to 89%.
With `O=C(Nc1ccc(F)c(C(=O)c2ccc3nccnc3c2)c1)c1cccc(C(F)(F)F)c1` [Compound C116, N-(4-fluoro-3-(quinoxaline-6-carbonyl)phenyl)-3-(trifluoromethyl)benzamide], the 50% inhibitory concentration (IC50) in test [1] was 2 to 5 µM; in test [3] it was less than 1 µM. The results for the inhibition at 1 µM in test [2], in test [4] and in test [5] were more than 89%, more than 89% and 70 to 89%, respectively.
Regarding `O=C(Nc1ccc(F)c(C(=O)c2ccc3ncc(N4CCOCC4)nc3c2)c1)Nc1ccc(Cl)c(C(F)(F)F)c1` [Compound C030, 1-(4-chloro-3-(trifluoromethyl)phenyl)-3-(4-fluoro-3-(3-morpholinoquinoxaline-6-carbonyl)phenyl)urea], the half-inhibitory concentration (IC50) in test [1] is 2 to 5 µM; in test [2] it was less than 0.1 µM; in test [3] it was less than 1 µM; in test [4] it was more than 0.1 µM. The figures for the inhibition at 1 µM in test [2], in test [4] and in test [5] were more than 89%, 70 to 89% and less than 70%, respectively.
As to `O=C(Nc1ccnc(C(F)(F)F)c1)Nc1ccc(F)c(C(=O)c2ccc3ncc(N4CCOCC4)nc3c2)c1` [Compound C090, 1-(4-fluoro-3-(3-morpholinoquinoxaline-6-carbonyl)phenyl)-3-(2-(trifluoromethyl)pyridin-4-yl)urea], the IC50 is more than 5 µM in test [1] and less than 1 µM in test [3]. Also, the inhibition at 1 µM in test [2] is 70 to 89%; in test [4] it was more than 89%; in test [5] it was more than 89%.
Regarding `O=C(Nc1cc(F)c(F)c(C(=O)c2ccc3nccnc3c2)c1F)c1cccc(C(F)(F)F)c1` [Compound C109, N-(2,4,5-trifluoro-3-(quinoxaline-6-carbonyl)phenyl)-3-(trifluoromethyl)benzamide], the IC50 is 2 to 5 µM in test [1], more than 0.1 µM in test [2], more than 5 µM in test [3] and more than 0.1 µM in test [4]. In addition, the results for the inhibition at 1 µM in test [2], in test [4] and in test [5] were 70 to 89%, 70 to 89% and less than 70%, respectively.
In the case of `O=C(Nc1ccc(Cl)c(C(F)(F)F)c1)Nc1cc(F)c(F)c(C(=O)c2ccc3nccnc3c2)c1F` [Compound C007, 1-(4-chloro-3-(trifluoromethyl)phenyl)-3-(2,4,5-trifluoro-3-(quinoxaline-6-carbonyl)phenyl)urea], the IC50 in test [1] was in the range of 2 to 5 µM; in test [3], 1 to 5 µM. In addition, the inhibition at 1 µM in test [2], in test [4] and in test [5] was less than 70% throughout.
As to `O=C(Nc1ccc(F)cc1)Nc1ccc(F)c(C(=O)c2ccc3ncc(N4CCNCC4)nc3c2)c1` [Compound C100, 1-(4-fluoro-3-(3-(piperazin-1-yl)quinoxaline-6-carbonyl)phenyl)-3-(4-fluorophenyl)urea], the IC50 in test [1] was 2 to 5 µM; in test [2], less than 0.1 µM. The inhibition at 1 µM in test [2], in test [4] and in test [5] was more than 89% throughout.
For the compound `O=C(Nc1ccc(F)cc1)Nc1cc(F)cc(C(=O)c2ccc3ncc(N4CCOCC4)nc3c2)c1` [Compound C043, 1-(3-fluoro-5-(3-morpholinoquinoxaline-6-carbonyl)phenyl)-3-(4-fluorophenyl)urea], the 50% inhibitory concentration (IC50) in test [1] and in test [3] was more than 5 µM throughout. The inhibition at 1 µM in test [2] was less than 70%; in test [4] it was more than 89%.
Regarding `O=C(Nc1cc(F)c(F)c(C(=O)c2ccc3ncc(N4CCOCC4)nc3c2)c1F)c1cccc(F)c1` [Compound C137, 3-fluoro-N-(2,4,5-trifluoro-3-(3-morpholinoquinoxaline-6-carbonyl)phenyl)benzamide], the 50% inhibitory concentration (IC50) in test [1] and in test [3] was more than 5 µM in each case. For the same compound, the inhibition at 1 µM in test [2] and in test [4] was 70 to 89% throughout.
With `O=C(Nc1cc(F)cc(C(=O)c2ccc3nccnc3c2)c1)c1cccc(C(F)(F)F)c1` [Compound C126, N-(3-fluoro-5-(quinoxaline-6-carbonyl)phenyl)-3-(trifluoromethyl)benzamide], the half-inhibitory concentration (IC50) was more than 5 µM in test [1] and 1 to 5 µM in test [3]. The inhibition at 1 µM is less than 70% in test [2] and more than 89% in test [4].
Taken in the same sequence, the figures for `O=C(Nc1cc(F)c(F)c(C(=O)c2ccc3nccnc3c2)c1)c1ccc(Cl)c(C(F)(F)F)c1` [Compound C129, 4-chloro-N-(3,4-difluoro-5-(quinoxaline-6-carbonyl)phenyl)-3-(trifluoromethyl)benzamide] were more than 5 µM, 1 to 5 µM, 70 to 89% and more than 89%.
The like results for `O=C(Nc1ccc(Cl)c(F)c1)Nc1ccc(F)c(C(=O)c2ccc3ncc(N4CCOCC4)nc3c2)c1` [Compound C052, 1-(4-chloro-3-fluorophenyl)-3-(4-fluoro-3-(3-morpholinoquinoxaline-6-carbonyl)phenyl)urea] were, in that order, less than 2 µM, less than 1 µM, 70 to 89% and more than 89%.
For `O=C(Nc1ccc(F)c(C(=O)c2ccc3ncc(N4CCOCC4)nc3c2)c1)c1cccc(F)c1` [Compound C136], the IC50 was more than 5 µM in test [1] and 1 to 5 µM in test [3]. Besides, the inhibition at 1 µM in test [2] and in test [4] was more than 89% throughout.
In the case of `O=C(Nc1cccc(C(F)(F)F)c1)Nc1ccc(F)c(C(=O)c2ccc3nccnc3c2)c1F` [Compound C010, 1-(2,4-difluoro-3-(quinoxaline-6-carbonyl)phenyl)-3-(3-(trifluoromethyl)phenyl)urea], the IC50 in test [1] and in test [3] was more than 5 µM throughout. Also, the inhibition at 1 µM in test [2] was less than 70%; in test [4], 70 to 89%.
As for `O=C(Nc1ccc(F)c(F)c1)Nc1ccc(F)c(C(=O)c2ccc3nccnc3c2)c1` [Compound C071, 1-(3,4-difluorophenyl)-3-(4-fluoro-3-(quinoxaline-6-carbonyl)phenyl)urea], the values for the IC50 in test [1] and in test [3] were more than 5 µM and 1 to 5 µM, respectively. Also, the results for the inhibition at 1 µM in test [2] and in test [4] were less than 70% and more than 89%, respectively.
Taken in the same sequence, the figures for `O=C(Nc1cccc(Cl)c1)Nc1cc(F)cc(C(=O)c2ccc3ncc(N4CCOCC4)nc3c2)c1` [Compound C047, 1-(3-chlorophenyl)-3-(3-fluoro-5-(3-morpholinoquinoxaline-6-carbonyl)phenyl)urea] were 2 to 5 µM, 1 to 5 µM, less than 70% and more than 89%.
The like results for `O=C(Nc1ccc(Cl)cc1)Nc1cc(F)cc(C(=O)c2ccc3nccnc3c2)c1` [Compound C063, 1-(4-chlorophenyl)-3-(3-fluoro-5-(quinoxaline-6-carbonyl)phenyl)urea] were, in that order, more than 5 µM, 1 to 5 µM, less than 70% and more than 89%.
